Data: publication PMC6471485, “Selective Inhibitors of a Human Prolyl Hydroxylase (OGFOD1) Involved in Ribosomal Decoding” (Chemistry (Weinheim an Der Bergstrasse, Germany), 2019)

Experiments:
[1] = molecular target: JARID1C (Homo sapiens, UniProt P41229); test: JARID1C AlphaScreen-based assay; assay type: biochemical
Protocol: reactions were quenched after 4 min. KDM4A inhibition was tested as described previously using a formaldehyde dehydrogenase (FDH) assay.[9] JARID1B and JARID1C inhibition was tested as described previously using reported AlphaScreen-based assays.[10] MINA531-464 and NO66116-641 were cloned into pFB-LIC-Bse, and the N-terminal His-tagged proteins were produced in Sf9 insect cells. The MINA53 peptide substrate Rpl27a […]
(Gly31 – Pro49 […]) and the NO66 peptide substrate Rpl8
(Asn205 – Thr224 […]) were synthesized by Peptide Protein
Research Ltd (Fareham, Hampshire, UK) to >95% purity. IC50 determinations were performed in 384-well polypropylene plates (Greiner Bio One, Cat Number 781096), and compound dispenses were performed using an ECHO 550 acoustic dispenser (Labcyte, Sunnyvale, CA).
NO66 (diluted to 375 nM in 50 mM MES pH 7.0, 150 mM NaCl) and MINA53 (diluted to 187.5 nM in 50 mM HEPES pH 7.5, 50 mM NaCl) were dispensed (40 µL) into 384-well compound plates using a multidrop combi reagent dispenser (Thermo Scientific, Code 5840300) with a small tube plastic tip dispensing cassette (Thermo Scientific, Code 24073290).
NO66 and MINA53 were pre-incubated with compound for 15 minutes, and the enzyme reaction initiated by dispensing 10 µL of substrate solution [250 µM (NH4)2Fe(SO4)2, 500 µM sodium ascorbate, 25 µM 2OG, 25 µM peptide] in optimized enzyme buffer. […]

[2] = molecular target: Tpa1p (Saccharomyces cerevisiae, UniProt P40032); test: Tpa1p inhibition assay (Figure S12); assay type: biochemical; conditions: Tpa1p 2 µM (Figure S12)
[3] = molecular target: T1, PHD2 (Homo sapiens, UniProt Q9GZT9); test: 2OG displacement from PHD2 by CPMG-edited 1H NMR; assay type: binding; conditions: 10 µM 2OG, 10 µM PHD2, 70 µM inhibitor
T1 construct: 181-426 or OGFOD1
Protocol: total echo time of 40 ms, a relaxation delay of 2 s, with 256 scans. Water suppression was achieved by presaturation. Samples contained 30 µM apo-PHD2181-426 or OGFOD1, supplemented with 60 µM Zn(II), 30 µM of inhibitor, all in 50 mM Tris-d11, pH 7.5, 10 % D2O, […]
wLOGSY Binding Experiments: For water-ligand observed gradient spectroscopy (wLOGSY) analyses, typical experimental parameters were the following: mixing time, 1 s; relaxation delay, 2 s; number of transients, 512. Solvent excitation was achieved using a 16-ms 180° selective rectangular shape pulse with 1,000 points (Squa100.1000) set at the H2O frequency. […]
Competition Experiments by 2OG Displacement: 2OG displacement assays[12] were performed using CPMG-edited 1H spectra. […] The 2OG methylene resonance at 2.35 ppm was monitored. […]
HeLa cells were cultured in DMEM media supplemented with 10 % fetal bovine serum, 4 mM L-glutamine, 100 U/mL penicillin, and 100 µg/mL streptomycin. […] Cell extracts were analyzed by SDS-PAGE, electroblotted onto PVDF membranes (Millipore) and probed with anti-HIF-1α antibody (clone 54, BD Transduction Laboratories) at 1:1000 dilution for 1 h at room temperature. […] Target proteins were detected with SuperSignal Chemiluminescent […]
Figure S15. Single-concentration qualitative 2OG displacement as monitored by CPMG-edited 1H NMR spectroscopy. […]

Chain of JARID1C (P41229 whole entry): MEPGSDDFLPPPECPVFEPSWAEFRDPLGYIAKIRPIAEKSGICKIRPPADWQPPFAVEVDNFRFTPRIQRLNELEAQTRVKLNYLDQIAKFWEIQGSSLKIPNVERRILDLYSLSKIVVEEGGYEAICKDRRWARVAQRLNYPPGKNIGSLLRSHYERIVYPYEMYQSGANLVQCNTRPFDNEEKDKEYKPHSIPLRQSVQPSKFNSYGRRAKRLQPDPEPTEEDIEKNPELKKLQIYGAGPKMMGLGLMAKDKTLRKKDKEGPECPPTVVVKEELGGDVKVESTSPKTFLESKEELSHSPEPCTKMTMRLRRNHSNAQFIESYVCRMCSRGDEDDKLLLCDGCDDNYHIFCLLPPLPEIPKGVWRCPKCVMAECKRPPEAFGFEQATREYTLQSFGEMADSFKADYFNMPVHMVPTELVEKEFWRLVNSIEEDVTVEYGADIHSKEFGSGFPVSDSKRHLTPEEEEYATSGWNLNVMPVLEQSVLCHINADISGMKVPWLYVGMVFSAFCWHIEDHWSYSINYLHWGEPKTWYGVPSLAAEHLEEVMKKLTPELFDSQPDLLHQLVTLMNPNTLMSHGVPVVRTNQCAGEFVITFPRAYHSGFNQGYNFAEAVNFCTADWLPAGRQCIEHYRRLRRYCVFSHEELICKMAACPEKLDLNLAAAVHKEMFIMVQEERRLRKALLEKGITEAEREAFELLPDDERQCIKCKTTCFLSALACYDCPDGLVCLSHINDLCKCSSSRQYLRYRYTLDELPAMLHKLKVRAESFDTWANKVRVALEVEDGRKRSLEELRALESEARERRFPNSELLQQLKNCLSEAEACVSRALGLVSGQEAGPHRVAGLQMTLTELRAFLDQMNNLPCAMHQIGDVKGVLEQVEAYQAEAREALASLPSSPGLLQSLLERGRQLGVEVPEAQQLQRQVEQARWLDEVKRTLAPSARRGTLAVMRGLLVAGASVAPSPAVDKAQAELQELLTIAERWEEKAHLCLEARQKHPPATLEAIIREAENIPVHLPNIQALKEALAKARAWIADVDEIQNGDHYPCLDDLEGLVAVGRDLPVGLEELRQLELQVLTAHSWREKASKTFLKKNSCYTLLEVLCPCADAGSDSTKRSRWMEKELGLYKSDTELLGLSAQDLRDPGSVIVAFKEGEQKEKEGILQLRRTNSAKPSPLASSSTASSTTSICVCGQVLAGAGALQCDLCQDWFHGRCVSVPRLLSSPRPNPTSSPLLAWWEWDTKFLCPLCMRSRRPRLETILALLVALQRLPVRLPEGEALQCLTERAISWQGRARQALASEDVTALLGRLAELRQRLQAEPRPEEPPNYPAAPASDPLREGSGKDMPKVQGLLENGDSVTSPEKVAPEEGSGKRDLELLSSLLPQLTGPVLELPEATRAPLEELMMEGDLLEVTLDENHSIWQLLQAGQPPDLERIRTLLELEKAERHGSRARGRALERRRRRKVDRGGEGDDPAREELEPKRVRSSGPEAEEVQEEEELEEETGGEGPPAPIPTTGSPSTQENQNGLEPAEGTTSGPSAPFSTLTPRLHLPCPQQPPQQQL
Chain of Tpa1p (P40032 whole entry): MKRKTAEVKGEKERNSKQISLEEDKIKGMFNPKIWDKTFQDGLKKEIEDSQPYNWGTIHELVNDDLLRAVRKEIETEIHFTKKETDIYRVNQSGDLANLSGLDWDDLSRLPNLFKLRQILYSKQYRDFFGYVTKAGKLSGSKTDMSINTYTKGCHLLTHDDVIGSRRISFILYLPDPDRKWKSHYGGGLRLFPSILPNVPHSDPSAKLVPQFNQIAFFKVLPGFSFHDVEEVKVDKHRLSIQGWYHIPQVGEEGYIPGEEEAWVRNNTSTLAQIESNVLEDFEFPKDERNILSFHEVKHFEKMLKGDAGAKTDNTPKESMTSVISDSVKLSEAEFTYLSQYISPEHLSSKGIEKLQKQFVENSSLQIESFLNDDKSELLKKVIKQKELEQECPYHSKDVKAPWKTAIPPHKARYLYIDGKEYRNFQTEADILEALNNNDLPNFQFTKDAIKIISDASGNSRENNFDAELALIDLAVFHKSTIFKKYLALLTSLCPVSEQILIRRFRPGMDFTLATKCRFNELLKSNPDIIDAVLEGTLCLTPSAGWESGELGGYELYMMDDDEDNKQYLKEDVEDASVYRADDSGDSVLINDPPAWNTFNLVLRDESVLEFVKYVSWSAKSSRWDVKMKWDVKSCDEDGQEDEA
T1 sequence (Q9GZT9 181-426 limits assumed): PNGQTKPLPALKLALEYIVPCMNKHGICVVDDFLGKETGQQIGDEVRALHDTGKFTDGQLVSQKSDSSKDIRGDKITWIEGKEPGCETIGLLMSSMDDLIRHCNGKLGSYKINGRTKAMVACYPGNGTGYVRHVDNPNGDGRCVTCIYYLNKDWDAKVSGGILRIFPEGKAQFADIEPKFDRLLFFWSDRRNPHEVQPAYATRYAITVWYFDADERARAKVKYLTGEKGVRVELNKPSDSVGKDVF

Row | SMILES | IC50 [1] [µM] | inhibition of Tpa1p, in words [2] | displacement of bound 2OG from PHD2, in words [3]
1 | Cn1c(O)c(C(=O)CCc2cccs2)c(=O)n(C)c1=O [compound 42] | > 100 | potently inhibit | not from that of PHD2
2 | Cn1c(O)c(C(=O)CCc2ccccc2)c(=O)n(C)c1=O [compound 26] | > 100 | potently inhibit | not from that of PHD2
